ChEMBL document CHEMBL1201862, “PubChem BioAssay data set” (2004)
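Step 1: Grow cells in 96-well plates. Step 2: Expose to compound for 48 hours at 5 concentrations. Step 3: Interpolate endpoints linearly; if unreached, use highest concentration. Here, GI50 denotes the concentration required for 50% inhibition of growth.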 The source made the active and inactive calls. Cut-off read from the data, not from the text of the source: active = GI50 up to about 1.1 µM and inactive = higher. Non-standard residues stand in square brackets, D forms with d. Residues, ends and D or L forms follow the SMILES beside them. ξ: configuration not given here. *: point of attachment. ξHyp = O=C(O)C1CC(O)CN1; Cbz = O=C(OCc1ccccc1)*

How the values were obtained:
Experiment in all cases: inhibition of tumour cell growth, NCI panel, 48 h
A549 = tested on: A549
ACHN = tested on: ACHN
COLO 205 = tested on: COLO 205
HCT-116 = tested on: HCT-116
IGROV-1 = tested on: IGROV-1
K562 = tested on: K562
KM12 = tested on: KM12
NCI-H226 = tested on: NCI-H226
NCI-H23 = tested on: NCI-H23
NCI-H460 = tested on: NCI-H460
NCI-H522 = tested on: NCI-H522
NCI/ADR-RES = tested on: NCI/ADR-RES
SF-295 = tested on: SF-295
SK-MEL-5 = tested on: SK-MEL-5
SW-620 = tested on: SW-620
T47D = tested on: T47D
U-251 = tested on: U-251
UACC-257 = tested on: UACC-257
HOP-92 = tested on: HOP-92

Measured: GI50

NC(=O)CNC(=O)C1CC(O)CN1C(=O)OCc1ccccc1 (stereo not given) (Cbz-[ξHyp]-Gly-NH2)
inactive: A549 > 100 µM | ACHN > 100 µM | COLO 205 > 100 µM | HCT-116 > 100 µM | IGROV-1 > 100 µM | K562 > 100 µM | KM12 > 100 µM | NCI-H226 > 100 µM | NCI-H23 > 100 µM | NCI-H460 > 100 µM | NCI-H522 > 100 µM | NCI/ADR-RES > 100 µM | SF-295 > 100 µM | SK-MEL-5 > 100 µM | SW-620 > 100 µM | T47D > 100 µM | U-251 > 100 µM | UACC-257 > 100 µM

CCOC(=O)C12CCC(=O)N1N(C)c1ncccc1N2 (stereo not given)
inactive: A549 > 100 µM | ACHN > 100 µM | COLO 205 > 100 µM | HCT-116 > 100 µM | IGROV-1 > 100 µM | K562 > 100 µM | KM12 > 100 µM | NCI-H226 > 100 µM | NCI-H23 > 100 µM | NCI-H460 > 100 µM | NCI-H522 > 100 µM | NCI/ADR-RES > 100 µM | SF-295 > 100 µM | SK-MEL-5 > 100 µM | SW-620 > 100 µM | T47D > 100 µM | U-251 > 100 µM | UACC-257 > 100 µM

CCC1=C(C=O)c2cc3[nH]c(cc4nc(c5c6[nH]c(cc1n2)c(C)c6C(=O)C5C(=O)OC)C(CCC(=O)OC)C4C)c(C)c3CC (stereo not given)
inactive: A549 > 100 µM | ACHN > 100 µM | COLO 205 > 100 µM | HCT-116 > 100 µM | HOP-92 > 100 µM | IGROV-1 > 100 µM | K562 > 100 µM | KM12 > 100 µM | NCI-H226 > 100 µM | NCI-H23 > 100 µM | NCI-H460 > 100 µM | NCI-H522 > 100 µM | SF-295 > 100 µM | SK-MEL-5 > 100 µM | SW-620 > 100 µM | T47D > 100 µM | U-251 > 100 µM | UACC-257 > 100 µM

S=c1nc(Nc2ccccc2)c2c3c(sc2[nH]1)CCCC3
inactive: ACHN > 100 µM | COLO 205 > 100 µM | HCT-116 > 100 µM | IGROV-1 > 100 µM | K562 > 100 µM | KM12 > 100 µM | NCI-H226 > 100 µM | NCI-H23 > 100 µM | NCI-H460 > 100 µM | NCI-H522 71.4 µM | NCI/ADR-RES > 100 µM | SF-295 > 100 µM | SK-MEL-5 > 100 µM | SW-620 > 100 µM | T47D > 100 µM | U-251 > 100 µM | UACC-257 > 100 µM

CC1CCCc2c(C#N)c(N)nc(-c3ccc(Cl)cc3)c21 (stereo not given)
inactive: ACHN 17.6 µM | COLO 205 18.8 µM | HCT-116 20.7 µM | IGROV-1 14.4 µM | K562 8.69 µM | KM12 17.9 µM | NCI-H226 14.5 µM | NCI-H23 16.8 µM | NCI-H460 22.8 µM | NCI/ADR-RES 20.6 µM | SF-295 18.3 µM | SK-MEL-5 9.38 µM | SW-620 53.6 µM | T47D 5.96 µM | U-251 22.2 µM | UACC-257 25.4 µM

N#Cc1ccc(-c2nc3c(N)ncnc3o2)cc1
inactive: A549 > 100 µM | ACHN 75 µM | COLO 205 > 100 µM | HCT-116 > 100 µM | IGROV-1 > 100 µM | K562 > 100 µM | KM12 > 100 µM | NCI-H226 > 100 µM | NCI-H23 > 100 µM | NCI-H460 > 100 µM | NCI-H522 > 100 µM | NCI/ADR-RES > 100 µM | SF-295 > 100 µM | SK-MEL-5 > 100 µM | SW-620 > 100 µM | T47D > 100 µM | UACC-257 > 100 µM

CCn1c(=O)c2c(=O)[nH][nH]c2c2ccccc21
inactive: A549 > 100 µM | ACHN > 100 µM | COLO 205 > 100 µM | HCT-116 > 100 µM | HOP-92 > 100 µM | IGROV-1 > 100 µM | K562 > 100 µM | KM12 > 100 µM | NCI-H226 > 100 µM | NCI-H23 > 100 µM | NCI-H460 > 100 µM | NCI-H522 > 100 µM | NCI/ADR-RES > 100 µM | SF-295 > 100 µM | SK-MEL-5 > 100 µM | SW-620 > 100 µM | U-251 > 100 µM | UACC-257 > 100 µM

Clc1nss/c1=N/c1nonc1-c1ccccc1
inactive: A549 68.9 µM | ACHN 18.6 µM | COLO 205 20.4 µM | HCT-116 34.9 µM | HOP-92 40.2 µM | IGROV-1 26.4 µM | K562 23.2 µM | KM12 31 µM | NCI-H226 29.6 µM | NCI-H23 26.1 µM | NCI-H460 > 100 µM | NCI-H522 18.3 µM | NCI/ADR-RES 24 µM | SF-295 55.2 µM | SK-MEL-5 20.3 µM | SW-620 41.6 µM | U-251 41.1 µM | UACC-257 33 µM

CC(=O)CC(=O)N1CCSC1=S
inactive: A549 > 10 µM | ACHN > 10 µM | HCT-116 > 10 µM | HOP-92 > 10 µM | IGROV-1 > 10 µM | K562 > 10 µM | KM12 > 10 µM | NCI-H226 > 10 µM | NCI-H23 > 10 µM | NCI-H460 > 10 µM | SF-295 > 10 µM | SK-MEL-5 > 10 µM | SW-620 > 10 µM | T47D 6.67 µM | U-251 > 10 µM | UACC-257 > 10 µM

COc1ccc(NC(=S)Nc2cc(C)cc(C)n2)cc1
inactive: A549 > 100 µM | COLO 205 > 100 µM | HCT-116 > 100 µM | IGROV-1 > 100 µM | K562 > 100 µM | KM12 > 100 µM | NCI-H226 > 100 µM | NCI-H460 > 100 µM | NCI-H522 > 100 µM | NCI/ADR-RES > 100 µM | SF-295 > 100 µM | SK-MEL-5 > 100 µM | SW-620 > 100 µM | T47D > 100 µM | U-251 > 100 µM | UACC-257 > 100 µM

N#C/C(=C\Nc1ccccn1)C(=O)c1ccco1
inactive: A549 > 100 µM | ACHN > 100 µM | COLO 205 > 100 µM | HCT-116 > 100 µM | HOP-92 > 100 µM | IGROV-1 > 100 µM | K562 > 100 µM | KM12 > 100 µM | NCI-H226 > 100 µM | NCI-H23 > 100 µM | NCI-H460 > 100 µM | NCI-H522 > 100 µM | NCI/ADR-RES > 100 µM | SF-295 > 100 µM | SK-MEL-5 > 100 µM | SW-620 > 100 µM | U-251 > 100 µM | UACC-257 > 100 µM

CC(=O)Nc1oc(C)nc1C#N
inactive: A549 > 100 µM | ACHN > 100 µM | HCT-116 > 100 µM | HOP-92 > 100 µM | IGROV-1 > 100 µM | K562 > 100 µM | KM12 > 100 µM | SK-MEL-5 > 100 µM | SW-620 > 100 µM | U-251 > 100 µM | UACC-257 > 100 µM

CCn1c(-c2ccccc2)cs/c1=N\C(P(=O)(O)O)P(=O)(O)O
inactive: A549 > 100 µM | ACHN > 100 µM | COLO 205 > 100 µM | HCT-116 > 100 µM | HOP-92 > 100 µM | IGROV-1 > 100 µM | K562 > 100 µM | KM12 > 100 µM | NCI-H226 > 100 µM | NCI-H23 > 100 µM | NCI-H460 > 100 µM | NCI-H522 > 100 µM | NCI/ADR-RES > 100 µM | SF-295 > 100 µM | SK-MEL-5 > 100 µM | SW-620 > 100 µM | U-251 > 100 µM | UACC-257 > 100 µM

CSc1nc2c(nc(N)n2C2OC(CO)C(O)C(O)C2O)c(=O)n1C (stereo not given)
inactive: A549 > 100 µM | ACHN > 100 µM | COLO 205 > 100 µM | HCT-116 > 100 µM | HOP-92 > 100 µM | IGROV-1 > 100 µM | K562 > 100 µM | KM12 > 100 µM | NCI-H226 > 100 µM | NCI-H23 > 100 µM | NCI-H460 > 100 µM | NCI-H522 > 100 µM | SF-295 > 100 µM | SK-MEL-5 > 100 µM | SW-620 > 100 µM | U-251 > 100 µM | UACC-257 > 100 µM

COC(=N)CCCl
inactive: A549 > 100 µM | ACHN > 100 µM | COLO 205 > 100 µM | HCT-116 > 100 µM | HOP-92 > 100 µM | IGROV-1 > 100 µM | K562 > 100 µM | KM12 > 100 µM | NCI-H226 > 100 µM | NCI-H23 > 100 µM | NCI-H460 > 100 µM | NCI-H522 99.1 µM | NCI/ADR-RES > 100 µM | SF-295 > 100 µM | SK-MEL-5 > 100 µM | SW-620 > 100 µM | U-251 > 100 µM | UACC-257 > 100 µM

CCOC(=O)C(NC(=O)NC(C(=O)OCC)C(=O)OCC)C(=O)OCC
inactive: A549 > 100 µM | ACHN > 100 µM | HCT-116 > 100 µM | HOP-92 > 100 µM | IGROV-1 > 100 µM | K562 > 100 µM | NCI-H226 > 100 µM | NCI-H23 > 100 µM | NCI-H460 > 100 µM | NCI-H522 > 100 µM | NCI/ADR-RES > 100 µM | SF-295 49.9 µM | SK-MEL-5 > 100 µM | SW-620 > 100 µM | U-251 > 100 µM | UACC-257 > 10 µM
